Experimental data published in patent US20210324442A1, “In vitro Transcription-Translation Metabolic Networks to Measure Quantity or Activity of Enzymes” (priority 2020, published 2021).

Assays:
[1] = target: glutamine synthetase (GLNS) (Escherichia coli, UniProt P0A9C5)
Description: Example 2: Cell-free protein synthesis reactions were formulated in 96-well plates with the following specifications: 25% (v/v) cell extract, 12 nM pY71-sfGFP^37, 10-20 mM magnesium glutamate (concentration adjusted for optimal protein yield), 1 mM 1,4-diaminobutane, 1.5 mM spermidine, 40 mM phosphoenolpyruvate, 10 mM ammonium glutamate, 175 mM potassium glutamate, 2.7 mM potassium oxalate, 0.33 mM nicotinamide adenine dinucleotide, 0.27 mM coenzyme A, 1.2 mM ATP, 0.86 mM CTP, 0.86 mM GTP, 0.86 mM UTP, 0.17 mM folinic acid, 6 mM aspartate, 6 mM asparagine, and 2 mM of the 16 remaining proteinogenic amino acids. Gln was omitted from Gln-sensing reactions. For reactions containing human serum (Gemini Bio Products, Sacramento, Calif.), murine RNAse inhibitor (New England BioLabs, Ipswich MA) was added to a final concentration of 0.8 U/μL CFPS. Reactions were incubated at 37° C. in a BioTek SynergyMX plate reader, shaken for 30 seconds, and analyzed for fluorescence every 4-6 minutes at 480/510 nm excitation/emission wavelengths. Results were obtained after 60 minutes. Assay signal strength was calculated as the ratio of GFP RFU at saturating Gln concentrations to the GFP RFU at 0 μM Gln.

[2] = target: T1, phosphoenolpyruvate carboxylase (Escherichia coli, UniProt P00864); assay: CFPS yield with raised initial Asp; assay type: biochemical, E. coli; settings: 12 mM Asp compared with conventional 2 mM Asp, one-hour reaction
T1 construct: many enzymes which likely retain activity in the lysate-based CFPS reactions consume precious ATP superfluously; endogenous in cells; host or cells: E. coli BL21 Star (DE3) cell extract (lysate)
T1 sequence (P00864 whole entry): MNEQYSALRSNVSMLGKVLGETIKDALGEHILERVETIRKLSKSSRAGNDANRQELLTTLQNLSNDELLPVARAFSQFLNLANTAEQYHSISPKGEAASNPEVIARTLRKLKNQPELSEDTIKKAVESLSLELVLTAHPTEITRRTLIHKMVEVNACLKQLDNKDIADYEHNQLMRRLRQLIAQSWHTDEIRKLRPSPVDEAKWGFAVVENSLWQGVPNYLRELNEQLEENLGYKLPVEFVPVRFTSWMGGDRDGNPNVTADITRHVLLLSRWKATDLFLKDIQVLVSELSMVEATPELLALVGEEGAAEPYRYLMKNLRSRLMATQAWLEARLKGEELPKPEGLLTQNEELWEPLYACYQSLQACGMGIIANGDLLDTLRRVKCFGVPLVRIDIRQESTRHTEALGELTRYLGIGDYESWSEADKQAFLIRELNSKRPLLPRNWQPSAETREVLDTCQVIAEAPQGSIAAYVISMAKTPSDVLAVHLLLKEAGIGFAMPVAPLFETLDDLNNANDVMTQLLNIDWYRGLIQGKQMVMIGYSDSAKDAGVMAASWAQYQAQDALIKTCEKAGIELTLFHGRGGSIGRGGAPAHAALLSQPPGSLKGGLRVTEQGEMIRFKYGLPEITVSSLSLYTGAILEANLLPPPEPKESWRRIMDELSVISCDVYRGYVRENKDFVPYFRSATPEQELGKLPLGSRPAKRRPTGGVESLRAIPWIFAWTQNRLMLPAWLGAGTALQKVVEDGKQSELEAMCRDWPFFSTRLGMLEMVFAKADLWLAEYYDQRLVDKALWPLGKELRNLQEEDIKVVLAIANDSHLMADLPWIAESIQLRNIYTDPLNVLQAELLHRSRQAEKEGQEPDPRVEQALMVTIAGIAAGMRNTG
Description: The metabolic engineering approach presented in this work may also be useful for modulating protein expression yield or other desired products from cell-free reactions. Indeed, many enzymes which likely retain activity in the lysate-based CFPS reactions consume precious ATP superfluously. For example, GLNS, which is inhibited in this work, consumes ATP in the process of synthesizing Gln. […] Indeed, during the process of completing the work described herein, we learned that phosphoenolpyruvate carboxylase circumvents the production of ATP from PEP, and that its inhibition might improve CFPS performance. Accordingly, we identified Asp as an inhibitor of this enzyme and observed that CFPS initiated with 12 mM Asp compared with the conventional 2 mM Asp increased CFPS yield by 38% over a one-hour reaction (FIG. 8).
(§1) Gln was omitted from Gln-sensing reactions. […] Results were obtained after 60 minutes.

[3] = target: T2, E. coli ASNase (Escherichia coli, UniProt P00805); assay: CFPS reactions producing GFP in the presence of E. coli ASNase and ASP; assay type: biochemical; settings: 1.54 IU/mL ASNase + 6.5 mM ASP vs 1.54 IU/mL ASNase
T2 construct: purchased
T2 sequence (P00805 23-348): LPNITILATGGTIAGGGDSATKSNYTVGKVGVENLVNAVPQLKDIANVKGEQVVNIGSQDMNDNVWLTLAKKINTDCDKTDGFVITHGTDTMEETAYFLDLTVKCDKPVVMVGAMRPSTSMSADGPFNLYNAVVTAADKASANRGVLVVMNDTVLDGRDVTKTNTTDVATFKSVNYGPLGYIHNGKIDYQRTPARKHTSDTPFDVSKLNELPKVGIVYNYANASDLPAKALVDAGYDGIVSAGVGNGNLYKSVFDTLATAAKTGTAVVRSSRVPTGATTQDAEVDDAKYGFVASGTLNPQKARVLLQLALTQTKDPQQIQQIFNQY
Description: In FIG. 8, CFPS reactions producing GFP in the presence of E. coli ASNase and ASP. Reported conditions include 0 IU/mL ASNase (no ASNase added), 1.54 IU/mL ASNase, and 1.54 IU/mL ASNase+6.5 mM ASP. […] No plasmid (NP) control tests for the impact of CFPS machinery and possible reaction products if added to a CFPS reaction producing GFP. As such, for the NP control 5 μL of a cellfree reaction product (where no plasmid was added such that no protein expression was templated) was added to a second CFPS reaction producing GFP. […] Error bars represent one standard deviation for n=2 CFPS reactions.

[4] = system: E. coli-based CFPS reactions producing GFP; assay: CFPS Gln sensor assay, aqueous samples (GFP reporter); assay type: biochemical; settings: 70 mM MSO, Gln omitted as reagent, 1 hr, n=2, read-out: EC50 value (Hill equation fit of GFP response)
Description: Reactions omitted Gln as a reagent but included 70 mM MSO. Aqueous samples of known Gln concentrations were added to the CFPS reaction. On the graph, the x-axis represents the final concentration of Gln in the CFPS reaction (ranging from 0 to 2400 μM). Each data point represents a CFPS reaction after 1 hr with n=2 at each Gln concentration. […] The inset plots linear regression of the data. The solid blue line represents the fit, solid red bands represent the 95% confidence of fit, and dashed black bands represent the 95% confidence range for a single-point prediction.
Example 1: E. coli cell extract containing bacteriophage T7 RNA polymerase was prepared as previously described. Briefly, 5 mL overnight culture of BL21 Star™ (DE3) was added to 100 mL 2xYT. When OD600 reached ˜2.0, culture was transferred to 900 mL 2xYT. 1 L cultures were induced with 1 mM IPTG at OD600 0.4-0.6 and harvested at OD600 ˜2.5. All bacterial cultures were incubated at 37° C. and 280 RPM. Cells were homogenized with three passes at 21000 psi using the EmulsiflexB15 French press homogenizer (Avestin, Ottawa, Calif.) and centrifuged at 12000 RCF for 10 min. Clarified lysate was then incubated at 37° C. and 280 RPM for 30 min. Cell extract was dialyzed using 14 kDa MW cut-off cellulose membrane tubing (MilliporeSigma, Billerica, Mass.) for 4 hr at 4° C. immediately following incubation at 37° C. […]

[5] = system: E. coli-based CFPS reactions producing GFP; assay: CFPS Gln sensor assay in the presence of human serum; assay type: biochemical; settings: 70 mM MSO, RNAse inhibitor, 14% (v/v) human serum, 1 hr, n=2; read-out: EC50 value (Hill equation fit of GFP response)
Description: Reactions omitted Gln as a reagent but contained 70 mM MSO, RNAse inhibitor, and 14% (v/v) human serum with increasing Gln concentrations. The x-axis represents the corresponding Gln concentration in the CFPS reaction. Each data point represents a CFPS reaction after 1 hr with n=2 at each CFPS Gln concentration. […] Solid blue line represents the fit, solid red bands represent the 95% confidence of fit, and dashed black bands represent the 95% confidence range for a single-point prediction.
Example 1: E. coli cell extract containing bacteriophage T7 RNA polymerase was prepared as previously described. Briefly, 5 mL overnight culture of BL21 Star™ (DE3) was added to 100 mL 2xYT. When OD600 reached ˜2.0, culture was transferred to 900 mL 2xYT. 1 L cultures were induced with 1 mM IPTG at OD600 0.4-0.6 and harvested at OD600 ˜2.5. All bacterial cultures were incubated at 37° C. and 280 RPM. Cells were homogenized with three passes at 21000 psi using the EmulsiflexB15 French press homogenizer (Avestin, Ottawa, Calif.) and centrifuged at 12000 RCF for 10 min. Clarified lysate was then incubated at 37° C. and 280 RPM for 30 min. Cell extract was dialyzed using 14 kDa MW cut-off cellulose membrane tubing (MilliporeSigma, Billerica, Mass.) for 4 hr at 4° C. immediately following incubation at 37° C.
as §1

Sequence of glutamine synthetase (GLNS) (P0A9C5 2-469 limits assumed): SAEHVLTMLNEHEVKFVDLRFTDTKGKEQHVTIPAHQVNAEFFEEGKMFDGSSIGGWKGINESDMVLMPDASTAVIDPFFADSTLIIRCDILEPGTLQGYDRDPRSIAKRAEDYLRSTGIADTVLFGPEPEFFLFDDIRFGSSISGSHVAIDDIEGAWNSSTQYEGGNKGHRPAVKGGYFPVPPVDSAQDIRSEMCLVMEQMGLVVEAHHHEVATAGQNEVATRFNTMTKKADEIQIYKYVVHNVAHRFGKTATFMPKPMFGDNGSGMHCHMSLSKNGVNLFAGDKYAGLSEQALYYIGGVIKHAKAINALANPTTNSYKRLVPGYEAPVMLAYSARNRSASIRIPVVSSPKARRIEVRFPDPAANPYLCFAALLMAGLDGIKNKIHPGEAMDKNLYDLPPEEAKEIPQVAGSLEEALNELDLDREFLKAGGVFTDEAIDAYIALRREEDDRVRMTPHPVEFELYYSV

For `CS(=N)(=O)CC[C@H](N)C(=O)O` (stereo partly drawn) [MSO, Methionine sulfoximine], the “effect on CFPS expression yield” value ([1]; concentrations up to 80 mM in the presence of 2 mM Gln) was “little effect” and the “signal-to-noise ratio of the assay” value ([1]; increased linearly with increasing MSO concentration up to 70 μM) was ~10.

For `N[C@@H](CC(=O)O)C(=O)O` [Asp, L-aspartate], the “increase of CFPS yield” value [2] was 38% and the “effect of ASP supplementation on ASNase activity” value [3] was “inhibitory effect”.

`NC(=O)CC[C@H](N)C(=O)O` [Gln, L-glutamine] was tested, and the EC50 [4] was 154 µM and the EC50 [5] was 100 µM.
